How the values were obtained:
[1] = system: proteasomal degradation in Golgi fractions of HEK293 cells; assay: suc-LLVY-AMC proteasome cleavage reporter assay, Golgi fractions; assay type: cell-based, human; details: Golgi fractions from treated vs untreated cells, 150 minutes
Experimental: Proteasome cleavage reporter assay Golgi or ER fractions from drug/siRNA treated HEK293 cells were incubated with suc-LLVY-AMC (Biotest) as per protocol and fluorescence levels were measured over time using a Tecan M200 plate reader (Ex: 360 nm, Em: 460 nm).
Quality control of protein substrates requires that unfolded and misfolded proteins be identified, ubiquitylated and finally, degraded. Following the above results, showing K-48 linked polyubiquitylation occurring in the Golgi apparatus and the presence of PSMD6, the final step in quality control was examined i.e., degradation. In order to assess degradation levels in the Golgi, the suc-LLVY-AMC fluorogenic proteasomal substrate assay was utilized, wherein the proteasomal substrate was exposed to Golgi fractions from treated vs. untreated cells. Fluorescence levels were measured over time, indicating the increase in proteasomal cleavage product (FIG. 8A). […] Treatment with the proteotoxic stressors Tunicamycin and monensin caused an increase in Golgi-localized degradation (FIGS. 8B, C), which is consistent with their effect on Golgi protein polyubiquitylation (FIG. 3B). […] In order to assess the involvement of PSMD6 in Golgi associated degradation, cells were transfected with either control siRNA or siRNA targeting PSMD6. The cells were fractionated and subjected to a suc-LLVY-AMC assay for both ER and Golgi fractions from cells treated with either siRNA. […] The results of the proteasomal activity assay point to active proteasomal degradation taking place in the Golgi apparatus. Furthermore, PSMD6 is shown to be a central component of Golgi-associated degradation while also playing a role in ERAD.

CD-138 positive MM cells = assay: Apoptosis (Annexin V) in bone marrow cells flushed from mice injected with 5TGM1 cells; assay type: cell-based; details: 24 hours
Experimental: The effect of monensin was tested in MM mice in vivo. To this end bone marrow cells were flushed from C57BL/KalwRij mice injected with 5TGM1 cells. Cells harvested from these mice included MM cells and others, found normally in mouse bone marrow.

[2] = system: polyubiquitin in the Golgi of HeLa cells; assay: High content immunofluorescence microscopy of polyubiquitin in drug-treated cells; assay type: cell-based, human; details: drugs for 2 hrs (tunicamycin 5 μg/ml, monensin 2 mM, MG-132 40 μM), vs untreated
Experimental: HEK 293, IMR-90 and HeLa cells were grown in DMEM supplemented with 10% fetal bovine serum, 1% Penicillin/streptomycin and L-glutamine (2 mmole/liter) (Biological industries) at 37° C. with 5% CO2. Drugs were introduced to cells for 2 hrs at varying concentrations. Tunicamycin (Sigma) was given at 5 μg/ml. Treatment with the glycosylation inhibitor tunicamycin is known to cause accumulation of unfolded glycoproteins in the ER which is followed by […] of these aberrant proteins. […] Monensin (Enco scientific services) was given at 2 mM and MG-132 (Biotest) at 40 μM. Monensin is an antibiotic, commercially known as Golgi-stop. This drug inhibits the transport of proteins between the medial and trans-Golgi stacks thus also inhibiting phosphorylation, addition of galactose to glycoproteins and sulfation that occur in the trans-Golgi (Griffiths et al., 1983; Rosa et al., 1992). Cell death assessment was done by trypan blue staining and counted with Countess IFM automated cell counter (Thermo Fisher). Proliferation of mammalian cells was measured by XTT assay.
HeLa cells, grown on 96-well ‘cell carrier’ plates (Perkin Elmer) were fixed in 4% paraformaldehyde (Electron microscopy sciences) and permeabilized in 0.5% triton (sigma)—PBS (biological industries). Primary antibodies were introduced for 1 hr and secondary antibodies for 30 min, both in PBS-2% BSA. Hoechst staining (Sigma) was done per product protocol. Images were acquired using the ‘Operetta’ high content screening microscope at X40 magnification and analyzed by ‘Harmony’ software (Perkin Elmer).
Constitutive and Stress-Induced Ubiquitylation of Proteins Retained in the Golgi The bioinformatics analysis of the extent of ubiquitylation in the Golgi prompted us to confirm the prediction for Golgi ubiquitylation in live mammalian cells. To this end, a high content screening microscopy system was utilized to assess and quantify the levels of polyubiquitylation in the Golgi apparatus under various stress inducing drug treatments. For this assay, drugs known to induce cell stress by different pathways were selected. Immunofluorescence images of HeLa cells stained for the Golgi marker giantin and poly-ubiquitin show Golgi localized polyubiquitylated puncta, indicating a basal level of protein steady state polyubiquitylation in the Golgi (FIG. 3A). Proteasomal inhibition is known to cause the accumulation of polyubiquitylated proteins that are bound for proteasomal degradation in the cell (37).
Next, the present inventors examined whether or not this accumulation also occurs in the Golgi, following treatment with the proteasomal inhibitor MG-132. […] This increase in polyubiquitylated proteins in the Golgi points to the possibility that as in the case of ERAD, polyubiquitylated proteins that are bound for degradation accumulate in the Golgi as well as in the ER upon proteasomal inhibition. Treatment with the glycosylation inhibitor tunicamycin is known to cause accumulation of unfolded glycoproteins in the ER which is followed by poly-ubiquitylation and degradation of these aberrant proteins. […] Monensin is an antibiotic, commercially known as Golgi-stop. This drug inhibits the transport of proteins between the medial and trans-Golgi stacks thus also inhibiting phosphorylation, addition of galactose to glycoproteins and sulfation that occur in the trans-Golgi (40, 41). […]

Q: With `CC[C@@]1([C@@H]2O[C@@H]([C@H]3O[C@@](O)(CO)[C@H](C)C[C@@H]3C)C[C@@H]2C)CC[C@H]([C@]2(C)CC[C@]3(C[C@H](O)[C@@H](C)[C@@H]([C@@H](C)[C@@H](OC)[C@H](C)C(=O)O)O3)O2)O1` [monensin] as the molecule, how does the “Golgi-localized proteasomal degradation (suc-LLVY-AMC cleavage)” value [1] read?
A: increase

Q: What about the “cell death of CD-138 positive MM cells” value (CD-138 positive MM cells) of the same molecule?
A: comparable to that of bortezomib

Q: And the Golgi-localized polyubiquitin [2]?
A: increase in Golgi localized poly-ubiquitin, to slightly lower levels than those measured with tunicamycin

From patent publication US20200268707A1, “METHODS OF MODULATING PROTEIN EXOCYTOSIS AND USES OF SAME IN THERAPY” (Yeda Research and Development Co. Ltd., priority 2016, published 2020)
